{
  "source": "the NIST ThermoML archive (doi:10.1016/j.jct.2013.03.004)",
  "settings": "101 kPa, Liquid mixture 1, Drop volume",
  "note": "± gives the expanded uncertainty stated by the source.",
  "data": [
    {"smiles": "Cc1ccccc1", "note": "[toluene] + O", "values": [
      {"measurement": "interfacial tension", "setting": "293.2 K", "result": "37.2 ± 0.3", "unit": "mN/m"},
      {"measurement": "interfacial tension", "setting": "298.2 K", "result": "36.3 ± 0.3", "unit": "mN/m"},
      {"measurement": "interfacial tension", "setting": "303.2 K", "result": "35.7 ± 0.3", "unit": "mN/m"},
      {"measurement": "interfacial tension", "setting": "308.2 K", "result": "35.2 ± 0.3", "unit": "mN/m"},
      {"measurement": "interfacial tension", "setting": "313.2 K", "result": "34.7 ± 0.3", "unit": "mN/m"}
    ]}
  ]
}
